Values of other authors in US20160220518A1 (iCeutica, Inc., priority 2009, published 2016).

Settings: in vivo

Compound: COc1ccc2cc([C@H](C)C(=O)O)ccc2c1 [naproxen]
- excreted in the urine as 6-0-desmethyl naproxen: < 1%
- excreted in the urine as naproxen: < 1%
- fraction of any dose excreted in the urine: Approximately 95%
- fraction of the administered dose excreted in the feces: ≤ 3%
